From BindingDB's records for patent US20250270215 (Chiesi Farmaceutici, 2025)

target: T1, TGF-beta receptor type-1 (Homo sapiens, UniProt P36897); test: In Vitro Assay
T1 sequence (P36897 whole entry): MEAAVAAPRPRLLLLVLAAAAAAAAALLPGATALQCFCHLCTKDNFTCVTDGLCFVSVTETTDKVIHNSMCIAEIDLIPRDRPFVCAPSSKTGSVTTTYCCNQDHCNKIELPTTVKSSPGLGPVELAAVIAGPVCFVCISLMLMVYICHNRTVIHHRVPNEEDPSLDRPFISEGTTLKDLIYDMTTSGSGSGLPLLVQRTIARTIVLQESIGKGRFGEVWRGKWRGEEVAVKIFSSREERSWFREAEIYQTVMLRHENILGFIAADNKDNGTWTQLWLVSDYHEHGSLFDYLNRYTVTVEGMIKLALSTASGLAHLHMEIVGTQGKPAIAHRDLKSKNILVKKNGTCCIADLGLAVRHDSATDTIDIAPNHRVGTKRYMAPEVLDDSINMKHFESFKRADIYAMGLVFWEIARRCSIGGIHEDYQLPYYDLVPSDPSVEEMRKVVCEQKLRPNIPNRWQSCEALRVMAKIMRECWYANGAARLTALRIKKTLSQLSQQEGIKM
Protocol: Briefly, the kinase reaction was performed by incubating 2.6 nM of the purified, commercially available human ALK5 (recombinant TGF β1 N-term GST-tagged, 80-end), a final concentration of TGFβ1 peptide 94.5 μM (Promega, T36-58) and ultra-pure ATP (Promega V915B). The ATP concentration was set at the Km value (concentration of substrate which permits the enzyme to achieve half maximal velocity (Vmax)) of ALK5 (5 μM). All reactions/incubations were performed at 25° C. Compound and ALK5 kinase were mixed and incubated for 15 mins. Reactions were initiated by addition of ATP at a final concentration in the assay of 0.83 μM. After an incubation of 150 min, the reaction was stopped, and ADP production detected with ADP-Glo kit according to manufacturer's indications. The assay was performed in 384-well format and was validated using a selection of reference compounds that was tested in 11 point concentration-response curve.

Compound	IC50 [nM]
Cc1cccc(-c2nc3n(c2-c2ccc4nonc4c2)CCN3)n1 [US20250270215, Example 18]	< 1
Clc1cccc(-c2nc3n(c2-c2cc4cnccc4s2)CCN3)n1 [US20250270215, Example 13]	< 1
Fc1ccc(Cl)cc1-c1nc2n(c1-c1cc3cnccc3s1)CCN2 [US20250270215, Example 14]	< 1
Fc1ccc(Cl)cc1-c1nc2n(c1-c1ccc3ncnn3c1)CCN2 [US20250270215, Example 2]	< 1
Cc1cccc(-c2nc3n(c2-c2cc4cnccc4s2)CC(C(=O)O)N3)n1 (stereo not drawn) [US20250270215, Example 4]	< 1

The next lines start with the values.

IC50 [nM]	Compound
< 1	Clc1cccc(-c2nc3n(c2-c2ccc4ncnn4c2)CCN3)n1 [US20250270215, Example 12]
< 1	Cc1csc(-c2nc3n(c2-c2ccc4ncnn4c2)CCN3)n1 [US20250270215, Example 3]
< 1	Cc1cccc(-c2nc3n(c2-c2ccc4nsnc4c2)CCN3)n1 [US20250270215, Example 17]
